From patent US20110312945A1, “CRTH2 MODULATORS” (priority 2008, published 2011)

Assays:
[1] = molecular target: T1, CRTH2 (Homo sapiens, UniProt Q9Y5Y4); assay: DPBS CD11b Antagonist Assay; type: cell-based; conditions: polymorphonuclear cells in PBS, eosinophil CD11b expression, challenge with 15R-Methyl-PGD2 (10 nM)
T1 construct: polymorphonuclear cells (0.5 ml; 10^6/ml cells) in PBS containing 0.9 mM CaCl2 and 0.5 mM MgCl2; endogenous in cells; host or cells: polymorphonuclear cells (eosinophils gated by flow cytometry)
T1 sequence (Q9Y5Y4 1-395): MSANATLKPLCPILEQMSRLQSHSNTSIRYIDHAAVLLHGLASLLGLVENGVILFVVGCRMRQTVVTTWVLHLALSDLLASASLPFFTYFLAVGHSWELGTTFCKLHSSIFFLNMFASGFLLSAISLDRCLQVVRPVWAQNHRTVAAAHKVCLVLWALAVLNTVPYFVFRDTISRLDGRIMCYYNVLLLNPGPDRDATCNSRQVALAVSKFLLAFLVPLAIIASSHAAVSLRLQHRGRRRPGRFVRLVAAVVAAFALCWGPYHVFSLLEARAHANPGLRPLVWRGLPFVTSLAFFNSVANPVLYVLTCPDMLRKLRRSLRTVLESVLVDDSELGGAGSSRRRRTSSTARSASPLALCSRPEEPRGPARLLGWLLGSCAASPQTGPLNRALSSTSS
Description: DPBS CD11b Antagonist Assay. The potential CRTH2 antagonist activity of certain compounds was tested using a CD11b expression assay using essentially the method described by Monneret et al. (J Pharmacol Exp Ther 304:349-55, 2003). Briefly, polymorphonuclear cells (0.5 ml; 10^6/ml cells) in PBS containing 0.9 mM CaCl2 and 0.5 mM MgCl2) were preincubated with various concentrations of test compounds at room temperature for 10 minutes before they were challenged with the agonist 15R-Methyl-PGD2 (10 nM). The incubations were terminated by the addition of ice-cold FACSFlow (BD Biosciences; Cat# 342003) and centrifugation (400 g for 5 minutes at 4° C.). The cells were then incubated for 30 minutes at 4° C. with a mixture of PE-labeled mouse anti-human VLA-4 (5 μl; BD Biosciences) and FITC-labeled mouse anti-human CD11b (10 μl; Beckman Coulter). The cells were then incubated with Optilyse C (0.25 ml; Beckman Coulter) for 15 minutes, centrifuged, and then fixed in PBS (0.4 ml; calcium and magnesium free) containing 1% formaldehyde. The distribution of fluorescence intensities among 60,000 cells was measured by flow cytometry. Eosinophils were gated out on the basis of their granularity (high side scatter) and labeling with VLA-4 (PE fluorescence). CD11b was then measured in the eosinophil region on the basis of fluorescence due to FITC. All data were corrected for the value obtained for the corresponding isotope control antibody.

[2] = molecular target: T1, CRTH2; assay: Human Whole Blood CD11b Antagonist Assay; type: cell-based; conditions: eosinophil CD11b expression, challenge with 15R-Methyl-PGD2 (10 nM)
Description: Human Whole Blood CD11b Antagonist Assay (modified from Nicholson, et al. Pulmonary Pharmacology and Therapeutics: 20 (2007); 52-59). The potential CRTH2 antagonist activity of certain compounds was tested in human whole blood using an assay that tests the ability of the compounds to block the CD11b expression in eosinophils by 15-R-methyl-PGD2. A CRTH2 antagonist should block CD11b expression by subsequently added 15-Methyl-PGD2. Human whole blood (200 μL) was incubated at 37° C. for 10 minutes in the presence of various concentrations of test compounds before being challenged with the agonist 15R-Methyl-PGD2 (10 nM). Reactions were terminated by the addition of ice-cold PBS+0.5% BSA+2 mMEDTA (1 mL) and centrifugation (300×g for 5 minutes at 4° C.) Cells were then incubated at 4° C. for 10 min in the presence of human IgG. Cells were then incubated for 30-45 min with a mixture of PE-Cy5-labeled mouse anti-human CD16 (10 ul; BD Biosciences) and FITC-labeled mouse anti-human CD11b (10 μL; Beckman Coulter.) After rinsing (1 mL ice-cold PBS+0.5% BSA+2 mMEDTA), red blood cells were lysed by the addition of 1 mL ice-cold H2O to the cell pellet for 30 sec-1 min immediately followed by the addition of 3.5% NaCl (300 μL.) Cells were then rinsed (2x−1 ml ice cold PBS+0.5% BSA+2 mMEDTA) and fixed in PBS containing 1% formaldehyde. The distribution of fluorescence intensities was measured by flow cytometry. Eosinophils were gated out on the basis of their granularity (high side scatter) and absence of CD-16. CD11b was then measured on this eosinophil population on the basis of fluorescence due to FITC.

| Structure (SMILES) | IC50 [1] | IC50 [2] |
| --- | --- | --- |
| Cc1c(Cc2ccc(S(=O)(=O)NC(C)C(C)(C)C)cc2)c2c(n1CC(=O)O)CCCC2 (stereo not shown) [Example I-3, 2-(3-(4-(N-(3,3-Dimethylbutan-2-yl)sulfamoyl)benzyl)-2-methyl-4,5,6,7-tetrahydro-1H-indol-1-yl)acetic acid] | < 0.005 µM | 0.005 to 0.1 µM |
| CCOC(=O)N1CCN(S(=O)(=O)c2ccc(Cc3c4c(n(CC(=O)O)c3C)CCCC4)cc2)CC1 [Example I-5, 2-(3-(4-(4-(Ethoxycarbonyl)piperazin-1-ylsulfonyl)benzyl)-2-methyl-4,5,6,7-tetrahydro-1H-indol-1-yl)acetic acid] | < 0.005 µM | 0.005 to 0.1 µM |
| Cc1c(Cc2ccc(S(=O)(=O)N3CCOCC3)cc2)c2c(n1CC(=O)O)CCCC2 [Example I-6, 2-(2-Methyl-3-(4-(morpholinosulfonyl)benzyl)-4,5,6,7-tetrahydro-1H-indol-1-yl)acetic acid] | < 0.005 µM | 0.1 to 0.5 µM |
| Cc1c(Cc2ccccc2S(=O)(=O)c2ccccc2)c2c(n1CC(=O)O)CCCC2 [Example I-7, 2-(2-methyl-3-(2-(phenylsulfonyl)benzyl)-4,5,6,7-tetrahydro-1H-indol-1-yl)acetic acid] | < 0.005 µM | 0.005 to 0.1 µM |
| Cc1c(Cc2ccc(S(=O)(=O)NC3CC3)cc2)c2c(n1CC(=O)O)CCCC2 [Example I-8, 2-(3-(4-(N-Cyclopropylsulfamoyl)benzyl)-2-methyl-4,5,6,7-tetrahydro-1H-indol-1-yl)acetic acid] | < 0.005 µM | 0.005 to 0.1 µM |
| Cc1c(Cc2ccc(S(=O)(=O)NC(C)C)cc2)c2c(n1CC(=O)O)CCCC2 [Example I-10, 2-(3-(4-(N-Isopropylsulfamoyl)benzyl)-2-methyl-4,5,6,7-tetrahydro-1H-indol-1-yl)acetic acid] | < 0.005 µM | 0.1 to 0.5 µM |
| CCOC(=O)N1CCN(S(=O)(=O)c2ccc(Cc3c4c(n(CC(=O)O)c3C)CCC(C)(C)C4)cc2)CC1 [Example I-12, 2-(3-(4-(4-(Ethoxycarbonyl)piperazin-1-ylsulfonyl)benzyl)-2,5,5-trimethyl-4,5,6,7-tetrahydro-1H-indol-1-yl)acetic acid] | < 0.005 µM | 0.005 to 0.1 µM |
| Cc1c(Cc2ccc(S(=O)(=O)N3CCCCC3)cc2)c2c(n1CC(=O)O)CCC(C)(C)C2 [Example I-13, 2-(2,5,5-Trimethyl-3-(4-(piperidin-1-ylsulfonyl)benzyl)-4,5,6,7-tetrahydro-1H-indol-1-yl)acetic acid] | < 0.005 µM | 0.1 to 0.5 µM |
| Cc1c(Cc2ccccc2S(=O)(=O)N2CCCC2)c2c(n1CC(=O)O)CCC(C)(C)C2 [Example I-14, 2-(2,5,5-Trimethyl-3-(2-(pyrrolidin-1-ylsulfonyl)benzyl)-4,5,6,7-tetrahydro-1H-indol-1-yl)acetic acid] | < 0.005 µM | 0.005 to 0.1 µM |
| Cc1c(Cc2ccccc2S(=O)(=O)N2CCOCC2)c2c(n1[C@@H](C)C(=O)O)CCC(C)(C)C2 [Example I-34, (S)-2-(2,5,5-trimethyl-3-(2-(morpholinosulfonyl)benzyl)-4,5,6,7-tetrahydro-1H-indol-1-yl)propanoic acid] | 0.005 to 0.1 µM | > 0.5 µM |
| Cc1c(Cc2ccccc2S(=O)(=O)N2CCOCC2)c2c(n1CC(=O)O)C(C)(C)CCC2 [Example I-36, 2-(2,7,7-trimethyl-3-(2-(morpholinosulfonyl)benzyl)-4,5,6,7-tetrahydro-1H-indol-1-yl)acetic acid] | < 0.005 µM | 0.005 to 0.1 µM |
| Cc1c(Sc2ccc(S(=O)(=O)N3CCCC3)cc2)c2c(n1CC(=O)O)CCC(C)(C)C2 [Example I-38, 2-(2,5,5-trimethyl-3-(4-(pyrrolidin-1-ylsulfonyl)phenylthio)-4,5,6,7-tetrahydro-1H-indol-1-yl)acetic acid] | < 0.005 µM | > 0.5 µM |
| Cc1c(Cc2ccccc2S(=O)(=O)N2CCOCC2)c2c(n1CC(=O)O)CCC(F)(F)C2 [Example I-39, 2-(5,5-difluoro-2-methyl-3-(2-(morpholinosulfonyl)benzyl)-4,5,6,7-tetrahydro-1H-indol-1-yl)acetic acid] | < 0.005 µM | < 0.005 µM |
| Cc1c(Sc2ccc(S(=O)(=O)N3CCOCC3)cc2)c2c(n1CC(=O)O)CC(C)(C)CC2=O [Example I-41, 2-(2,6,6-trimethyl-3-(4-(morpholinosulfonyl)phenylthio)-4-oxo-4,5,6,7-tetrahydro-1H-indol-1-yl)acetic acid] | 0.1 to 0.5 µM | > 0.5 µM |
| Cc1c(Sc2ccc(S(=O)(=O)N3CCCC3)cc2)c2c(n1CC(=O)O)CC(C)(C)CC2=O [Example I-42, 2-(2,6,6-trimethyl-4-oxo-3-(4-(pyrrolidin-1-ylsulfonyl)phenylthio)-4,5,6,7-tetrahydro-1H-indol-1-yl)acetic acid] | 0.1 to 0.5 µM | > 0.5 µM |
| Cc1c(Cc2ccc(S(=O)(=O)N3CCCC3)cc2)c2c(n1CC(=O)O)CC(C)(C)CC2=O [Example I-44, 2-(2,6,6-trimethyl-4-oxo-3-(4-(pyrrolidin-1-ylsulfonyl)benzyl)-4,5,6,7-tetrahydro-1H-indol-1-yl)acetic acid] | > 0.5 µM | > 0.5 µM |
| Cc1c(Cc2ccc(S(=O)(=O)N3CCOCC3)cc2)c2c(n1CC(=O)O)CC(C)(C)CC2=O [Example I-45, 2-(2,6,6-trimethyl-3-(4-(morpholinosulfonyl)benzyl)-4-oxo-4,5,6,7-tetrahydro-1H-indol-1-yl)acetic acid] | > 0.5 µM | > 0.5 µM |
| Cc1c(Cc2ccccc2S(=O)(=O)c2ccccc2)c2c(n1CC(=O)O)CC(C)(C)CC2=O [Example I-48, 2-(2,6,6-trimethyl-4-oxo-3-(2-(phenylsulfonyl)benzyl)-4,5,6,7-tetrahydro-1H-indol-1-yl)acetic acid] | < 0.005 µM | < 0.005 µM |
| CCOC(=O)Cn1c(C)c(Cc2ccccc2S(=O)(=O)c2ccccc2)c2c1CC(C)(C)CC2=O [Example I-63, Ethyl 2-(2,6,6-trimethyl-4-oxo-3-(2-(phenylsulfonyl)benzyl)-4,5,6,7-tetrahydro-1H-indol-1-yl)acetate] | 0.1 to 0.5 µM | 0.1 to 0.5 µM |
| Cc1c(Cc2ccccc2S(=O)(=O)N2CCCC2)c2c(n1CC(=O)O)CC(C)(C)C(C)(C)C2=O [Example I-95, 2-(2,5,5,6,6-pentamethyl-4-oxo-3-(2-(pyrrolidin-1-ylsulfonyl)benzyl)-4,5,6,7-tetrahydro-1H-indol-1-yl)acetic acid] | < 0.005 µM |  |
| Cc1c(Cc2ccccc2S(=O)(=O)N2CCCC2)c2c(n1CC(=O)O)CC(C)(C)C(F)(F)C2=O [Example I-96, 2-(5,5-difluoro-2,6,6-trimethyl-4-oxo-3-(2-(pyrrolidin-1-ylsulfonyl)benzyl)-4,5,6,7-tetrahydro-1H-indol-1-yl)acetic acid] | < 0.005 µM |  |
